Data on six compounds can be found in article PMC8321398, “The discovery of a novel series of compounds with single-dose efficacy against juvenile and adult Schistosoma species” (PLoS Neglected Tropical Diseases, 2021).

Converted amounts (≈) assume the structure as drawn. Like-named read-outs stand apart in the source and are kept apart here.

A short description of series [1]: Plasma protein binding in mouse plasma at 10 uM, equilibrium dialysis. The note with it: for recovery at 6 h, 10 µM: mouse, mouse plasma, pH 7.4. The series is classed as in vitro ADME. The protocol:
(§1) Each experiment was performed in duplicate for the compound being tested. A working solution of compound was prepared from 10 μL of 10 mM solution in DMSO + 190 μL 40:60 MeCN:Water. A Total solution was prepared from 12 μL of working solution + 588 μL plasma (compound conc: 10 μM, DMSO: 0.1%, ACN:0.76%). In an equilibrium dialysis chamber, Total solution (200 μL) was added to the plasma chamber and PBS pH 7.4 (350 μL) was added to the buffer chamber. The chamber was then incubated at 37°C for 6 h with constant shaking at 400 rpm (Thermomixer comfort, Eppendorf). Aliquots were removed from both plasma and buffer chambers and the following test samples prepared: Blank: blank Plasma (20 μL) + blank buffer (60 μL), Buffer: blank plasma (20 μL) + test buffer (60 μL), Plasma: test plasma (20 μL) + blank buffer (60 μL), Total: total sample (20 μL) + blank buffer (60 μL). Ice-cold acetonitrile (160 μL), containing a suitable standard was added to all samples, they were shaken vigorously and centrifuged at 4,000 rpm for 20 min at 15°C. Supernatant (110 μL) from each sample was diluted with water (110 μL) and the sample analysed by LC-MS/MS.
(§2) % Free = 100 × (AREA in buffer × dilution factor)/(AREA in Plasma × dilution factor)
(§3) % Recovery = 100 ×[(Avg AREA in buffer × dilution factor) + (Avg AREA in Plasma × dilution factor)] / (Avg AREA in Total × dilution factor)
In general terms: In equilibrium dialysis free small molecules cross a membrane that holds back macromolecules.

The nature of series [2]: Plasma protein binding in human plasma at 10 uM, equilibrium dialysis. In kind it is in vitro ADME. The note with it: for recovery at 6 h, 10 µM: human, human plasma, pH 7.4. The protocol: as §1, §2, §3
The nature of series [3]: Metabolic stability in human hepatocytes. In kind it is in vitro ADME. The note with it: hepatocytes (suspension); for remaining at 1.5 h, 1 µM: pH 7.4, 90 min incubation, read-out: Human hepatocyte % remaining at 90 min; for remaining at 0.5 h, 1 µM: pH 7.4, 30 min incubation, read-out: Human hepatocyte % remaining at 30 min. The method, then: 100 μM compound stock solution was prepared from 5 μL of 4 mM stock in DMSO + 195 μL MeCN. Working solution (2 μM compound) was prepared using 10 μL of 100 μM stock + 490 μL buffer pH 7.4 (KHB supplemented with CaCl2, NaHCO3, HEPES, fructose, glycine; pH 7.4).
Working solution (25 μL, 2 μM) was added in duplicate to wells in a 0.5 mL per well, 96 well plate which was preincubated to reach 37°C. Hepatocyte suspension (25 μL) was added to each plate, and the plate incubated (37°C, 95% relative humidity with 5% CO2 supply) under gentle mixing (Thermomixer @300 rpm). After designated time periods, ice-cold MeCN (250 μL) was added with a suitable standard. For T = 0 min, ice-cold MeCN (250 μL) with suitable standard was added to the working solution (2 μM) and hepatocyte suspension (25 μL) added. The plates for each time point were shaken, sonicated for 5 mins and kept at 4°C until the final plate was processed. The plates were centrifuged at 4,000 rpm for 20 min, supernatant (110 μL) was mixed with water (110 μL) and the samples analysed using LC-MS/MS.

Series [4] can be described thus: Kinetic solubility. The series is classed as physicochemical. From the text: Table 4 in vitro, physicochemical and in vivo properties of compounds pictured in Fig 10. | column: Measured physicochemical properties / Kinetic solubility, pH 7.4 (uM); Measured physicochemical properties / Kinetic solubility, FaSSIF (uM); Measured physicochemical properties / Kinetic solubility, FeSSIF (uM)

Series [5] deals with Adult S. mansoni. The series is described as follows: In vitro adult S. mansoni worm assay. In kind it is cell-based. To be noted: Schistosoma mansoni, 120 h incubation. An excerpt:
(§4) The Puerto Rican strain of S. mansoni was maintained in Biomphalaria glabrata and CD1 mice. Oncomelania hupensis (hupensis) infected with S. japonicum (Chinese strain) and Bulinus truncatus (truncatus) infected with Egyptian strain S. haematobium were obtained from BEI Resources, NIAID, NIH. Infection of mice for worm recovery was as previously described except that, whereas cercariae of S. mansoni and S. haematobium were obtained by shedding from infected snails under lights, cercariae of S. japonicum were obtained by gently crushing the snails. Furthermore, adult S. haematobium were recovered after 12 weeks following mouse infection.
(§5) In vitro efficacy was carried out as previously described. In brief, worms were recovered from infected mice by portal perfusion 3 weeks (for juveniles) or 6 weeks (for adults) post-infection using warm perfusion medium (Dulbecco’s Modified Eagle’s Medium [DMEM], 2mM L-glutamine, 100 Units/ml penicillin, 100μg/ml streptomycin, 20mM Hepes, 10 Units/ml heparin [Sigma, UK]). Worms were washed free of red blood cells using the perfusion medium, and finally suspended in complete medium (cDMEM: DMEM, 2mM L-glutamine, 100 Units/ml penicillin, 100μg/ml streptomycin, 10% FCS). The juvenile assays were carried out in 96-well plates, each well containing 6–8 worms in 200 μL cDMEM. The adult worm assay was in 24-well plates, each well containing 3 worm pairs in 1mL cDMEM. Both the juvenile and adult worm cultures were kept at 37° C, in an atmosphere of 5% CO2. Drug effects were determined on day 5 following drug treatment by assessing the viability of individual worms as described in [14].

In series [6] the test system is Juvenile S. mansoni. Description: In vitro juvenile (3 week old) S. mansoni worm assay. In kind it is cell-based. The note with it: Schistosoma mansoni; for EC50: Table 2, in vitro, 120 h incubation.
Text: as §4, §5

Setting [7] is: FaSSIF, pH 6.5, read-out: Kinetic solubility, FaSSIF.
Where [8] appears, read: FeSSIF, pH 5, read-out: Kinetic solubility, FeSSIF.
The mark [9] stands for this setting: pH 7.4, read-out: Kinetic solubility, pH 7.4.
[10] abbreviates: Table 2, in vitro, read-out: Adult S. mansoni EC50.
[11] abbreviates: Table 3, S. mansoni, read-out: Sm adult EC50.

For orientation: solubility (kinetic) means the concentration staying in solution when a stock, usually in DMSO, is diluted into the medium. One may read the EC50 as the concentration at which the effect is half-maximal. As for `Fc1ccc(-c2cn3c(-c4ccc5[nH]ncc5c4F)c(C(F)(F)F)nc3cn2)cc1C(F)(F)C(F)(F)F` [LSHTM-3645], the “Mouse plasma protein %binding” value in series [1] came out at 100%. Further, the recovery at 6 h, 10 µM in series [1] was determined as 96.9%; in series [2], 85.8%. For the same compound, in series [2], the “Human plasma protein %binding” value stood at 100%. Moreover, in series [3], the fraction remaining at 1.5 h, 1 µM was 105%. In addition, the kinetic solubility at 24 h in series [4] (setting [7]) was 199 µM (≈ 106 µg/mL); in series [4] (setting [8]) it was 200 µM (≈ 107 µg/mL); in series [4] (setting [9]), 0.264 µM (≈ 0.141 µg/mL). Besides, the EC50 in series [5] (setting [10]) worked out at 9.7 nM; in series [5] (setting [11]) it was 9.7 nM; in series [6], 10.7 nM.

Turning to `Fc1ccc(-c2cn3c(-c4ccc5[nH]ncc5c4F)c(C(F)(F)F)nc3cn2)cc1C(F)(F)F` [LSHTM-3642, 3-(4-fluoro-1H-indazol-5-yl)-6-(4-fluoro-3-(trifluoromethyl)phenyl)-2-(trifluoromethyl)imidazo[1,2-a]pyrazine], the “Mouse plasma protein %binding” value in series [1] amounted to 99.9915%. Also, the recovery at 6 h, 10 µM is 92.1% in series [1] and 97.4% in series [2]. Besides, the “Human plasma protein %binding” value in series [2] is reported as 99.9895%. Also, the amount remaining at 1.5 h, 1 µM in series [3] is 105%. The figures for the solubility (kinetic) at 24 h in series [4] (setting [7]), in series [4] (setting [8]) and in series [4] (setting [9]) were 196 µM (≈ 94.7 µg/mL), 197 µM (≈ 95.2 µg/mL) and 0.854 µM (≈ 0.413 µg/mL), respectively. The EC50 was found to be 27 nM in series [5] (setting [10]), 27.3 nM in series [5] (setting [11]) and 48 nM in series [6].

Regarding `Fc1c(-c2c(C(F)(F)F)nc3cnc(-c4cccc(C(F)(F)C(F)(F)F)c4)cn23)ccc2[nH]ncc12` [LSHTM-3608], the “Mouse plasma protein %binding” value in series [1] came out at 99.9195%. In addition, the results for the recovery at 6 h, 10 µM in series [1] and in series [2] were 80.8% and 97.8%, respectively. Moreover, the “Human plasma protein %binding” value in series [2] stood at 100%. In series [3], the fraction remaining at 1.5 h, 1 µM was found to be 98%. For the same compound, the kinetic solubility at 24 h in series [4] (setting [7]) is 200 µM (≈ 103 µg/mL); in series [4] (setting [8]), 196 µM (≈ 101 µg/mL); in series [4] (setting [9]), 0.704 µM (≈ 0.363 µg/mL). Further, the EC50 was 15.3 nM in series [5] (setting [10]), 15.3 nM in series [5] (setting [11]) and 21 nM in series [6].

Turning to `CC(C)c1cc(-c2cn3c(-c4ccc5[nH]ncc5c4F)c(C4CC4)nc3cn2)ccc1F` [LSHTM-3686], the “Mouse plasma protein %binding” value in series [1] was determined as 99.997%. Also, the figures for the recovery at 6 h, 10 µM in series [1] and in series [2] were 76.1% and 62.7%, respectively. Besides, the “Human plasma protein %binding” value in series [2] was 99.998%. In series [3], the amount remaining at 1.5 h, 1 µM was 75%. Also, the solubility (kinetic) at 24 h in series [4] (setting [7]) came out at 33.9 µM (≈ 14.6 µg/mL); in series [4] (setting [8]) it was 43.8 µM (≈ 18.8 µg/mL); in series [4] (setting [9]) it was 0.885 µM (≈ 0.38 µg/mL). Further, the EC50 in series [5] (setting [10]) was 5.4 nM; in series [5] (setting [11]), 5.4 nM; in series [6], 4.1 nM.

The term IC50 denotes the point on the concentration scale where inhibition reaches its midpoint. For the compound `CC(C)c1nc2cnc(-c3ccc(F)c(C(F)(F)F)c3)cn2c1-c1ccc2[nH]ncc2c1F` [LSHTM-3604], in series [1], the “Mouse plasma protein %binding” value is on record as 99.9858% and the recovery at 6 h, 10 µM was 94.5%. For the same compound, in series [2], the “Human plasma protein %binding” value was 99.9973% and the recovery at 6 h, 10 µM was 92.4%. For the same compound, in series [3], the amount remaining at 0.5 h, 1 µM was determined as 99% and the fraction remaining at 1.5 h, 1 µM was 98%. Moreover, the solubility (kinetic) in series [4] (FaSSIF, read-out: Kinetic solubility, FaSSIF) stood at 200 µM (≈ 91.5 µg/mL). In series [4] (FeSSIF, read-out: Kinetic solubility, FeSSIF), the kinetic solubility was 200 µM (≈ 91.5 µg/mL). For the same compound, the solubility (kinetic) at 24 h in series [4] (setting [9]) worked out at 0.834 µM (≈ 0.381 µg/mL). Also, the EC50 in series [5] (setting [10]) was determined as 31.5 nM. For the same compound, the half-inhibitory concentration (IC50) in series [6] (10 fold the in vitro value (assay run at 10% of whole blood protein), read-out: calculated whole blood IC50) is 0.152 µg/mL (≈ 0.332 µM). For the same compound, in series [6], the EC50 turned out to be 33.2 nM.

`CC(C)c1nc2cnc(-c3ccc(F)c(C(F)(F)F)c3)cn2c1-c1c(F)cc(O)cc1F` [LSHTM-3520]: in series [1], the “Mouse plasma protein %binding” value is given as 99.97%. Moreover, the recovery at 6 h, 10 µM in series [1] came out at 91.5%; in series [2], 97.1%. Also, the “Human plasma protein %binding” value in series [2] came to 99.9895%. In addition, the amount remaining at 0.5 h, 1 µM in series [3] is 52%. The kinetic solubility at 24 h in series [4] (setting [9]) worked out at 12.7 µM (≈ 5.73 µg/mL). The EC50 in series [5] (setting [10]) was 46 nM; in series [5] (setting [11]), 46.2 nM; in series [6] it was 27 nM.
